From patent US12492199B2, “Pyridopyrimidines as histamine H4-receptor inhibitors” (FAES FARMA, S.A., priority 2018, dated 2025)
Where two headings read alike, the source gives them in different places.

Legend:
[1] = biological target: human H1 receptor (Homo sapiens (Human), UniProt P35367); assay: H1 Binding assay ([3H]pyrilamine competition, membranes from CHO-K1 cells transfected with human H1 receptor); details: affinity for human histamine H1 receptor, class symbols; — not defined in key; read-out: ACTIVITY CLASS hH1R (Ki)
Procedure: Cetirizine and pyrilamine were supplied by Sigma-Aldrich. Bilastine was synthetized at FAES FARMA facilities (Lamiako-Leioa, Spain), chemical reagents such as Na2HPO4, KH2PO4 or polyvinylpyrrolidone as well as multiscreen microplates (MSFBN6B50) were purchased from Merck Millipore, scintillation liquid (Microscint 20), human H1 membranes (ES-390-M400UA) and ^3H-pirilamina (NET 594) were provided by PerkinElmer.
Affinity for histamine H1-receptor was determined by H1 Binding assay: • Membranes form CHO-K1 cells transfected with human H1 receptor and microplates of 96-well format were used. • For competition studies cell membranes were homogenated in 50 mM phosphate buffer (Na2HPO4 and KH2PO4 mixed to pH 7.4 at 25° C.) and added to the microplate at the concentration of approximately 5 μg/well. […] Non specific binding was defined using 10 μM unlabeled pyrilamine and the total incubation volume was 275 μl per well. • Incubations were performed until gentle agitation at 25° C. for 60 min and concluding with a rapid vacuum filtration using pre-soaked filters (5% polyvinylpyrrolidone). After ten rapid washes with cold wash buffer (50 mM phosphate buffer) the filter plates were dried at room temperature for 30 min. • Finally, scintillation liquid (Microscint 20) was added to the whole microplate in order to measure the radioactivity retained on the filters using an specific scintillation counter (Top Count—NXT). Curve analysis and values of IC50 were determined using Grap Pad Prism program (GraphPad Software, San Diego, USA). • Test compounds were initially evaluated at one concentration (1 μM) and thereafter if significant displacement was observed (>40%) a concentration-response curve was conducted. Each test concentration was measured in triplicate. • As reference compounds pyrilamine, cetirizine and Bilastine were used.

[2] = biological target: human H4 receptor (Homo sapiens (Human), UniProt Q9H3N8); assay: H4 Binding assay ([3H]histamine competition, membranes from CHO-K1 cells transfected with human H4 receptor)
Procedure: Affinity for histamine H4-receptor was determined by H4 Binding assay:
• Membranes from CHO-K1 cells transfected with human H4 receptor and microplates of 96-well format were used. • For competition studies cell membranes were homogenated in Tris-HCl 50 mM, EDTA 5 mM, pH 7.4 and added to the microplate at the concentration of approximately 15 μg/well. […] Non specific binding was defined using 10 μM unlabeled histamine and the total incubation volume was 275 μl per well. • Incubations were performed under gentle agitation at 25° C. for 60 min and concluding with a rapid vacuum filtration using pre-soaked filters (0.5% polyethylenimine). After ten rapid washes with cold wash buffer (50 mM Tris-HCl buffer) the filter plates were dried at room temperature for 30 min. • Finally, scintillation liquid (Microscint 20) was added to the whole microplate in order to measure the radioactivity reattained on the filters using a specific scintillation counter (Top Count—NXT). […] H1 Binding Assay Materials

[3] = affinity for human histamine H4 receptor, class symbols, read-out: ACTIVITY CLASS hH4R (Ki)

human H1 receptor, sequence (P35367 whole entry): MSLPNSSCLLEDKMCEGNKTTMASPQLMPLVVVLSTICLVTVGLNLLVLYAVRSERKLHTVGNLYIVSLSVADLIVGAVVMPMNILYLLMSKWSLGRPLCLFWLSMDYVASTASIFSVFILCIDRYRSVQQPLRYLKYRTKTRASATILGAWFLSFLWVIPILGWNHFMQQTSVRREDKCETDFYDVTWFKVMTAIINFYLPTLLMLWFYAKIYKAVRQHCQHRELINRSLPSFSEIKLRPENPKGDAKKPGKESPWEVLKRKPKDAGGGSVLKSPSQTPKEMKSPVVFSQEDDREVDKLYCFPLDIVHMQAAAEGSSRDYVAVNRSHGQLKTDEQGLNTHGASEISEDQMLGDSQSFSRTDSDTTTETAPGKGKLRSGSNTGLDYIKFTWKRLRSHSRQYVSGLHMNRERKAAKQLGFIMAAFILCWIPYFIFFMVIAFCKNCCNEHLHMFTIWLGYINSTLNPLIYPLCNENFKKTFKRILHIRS

| SMILES | Ki [1] [nM] | Ki [2, 3] [nM] | IC50 ([2]; histamine H4 receptor binding) [nM] | inhibition at 1 µM ([2]; histamine H4 receptor binding, compounds initially evaluated at 1 μM) [%] | Ki ([2]; histamine H4 receptor, comparative compounds, read-out: Ki) [nM] |
| --- | --- | --- | --- | --- | --- |
| CN1CCN(c2nc(NCc3ccsc3)c3cc(Cl)ncc3n2)CC1 [Example 5, 6-chloro-2-(4-methylpiperazin-1-yl)-N-(thiophen-3-ylmethyl)pyrido[3,4-d]pyrimidin-4-amine] | < 1000 | < 1000 |  |  |  |
| Clc1cc2c(NCc3ccco3)nc(N3CCNCC3)nc2cn1 [Example 25, 6-chloro-N-(furan-2-ylmethyl)-2-(piperazin-1-yl)pyrido[3,4-d]pyrimidin-4-amine] | < 1000 | < 1000 |  |  |  |
| CCCc1cc2c(NCc3cccs3)nc(N3CCN(C)CC3)nc2cn1 [Example 49, 2-(4-methylpiperazin-1-yl)-6-propyl-N-(thiophen-2-ylmethyl)pyrido[3,4-d]pyrimidin-4-amine] | < 1000 | < 1000 |  |  |  |
| Cc1cc2c(NCc3cccs3)nc(N3CCNCC3)nc2cn1 [Example 60, 6-methyl-2-(piperazin-1-yl)-N-(thiophen-2-ylmethyl)pyrido[3,4-d]pyrimidin-4-amine] | < 1000 | < 1000 |  |  |  |
| Cc1ccsc1CNc1nc(N2CCN(C)CC2)nc2cnc(Cl)cc12 [Example 68, 6-chloro-2-(4-methylpiperazin-1-yl)-N-((3-methylthiophen-2-yl)methyl)pyrido[3,4-d]pyrimidin-4-amine] | < 1000 | < 1000 |  |  |  |
| Cc1ccc(CNc2nc(N3CCN(C)CC3)nc3cnc(Cl)cc23)s1 [Example 69, 6-chloro-2-(4-methylpiperazin-1-yl)-N-((5-methylthiophen-2-yl)methyl)pyrido[3,4-d]pyrimidin-4-amine] | < 1000 | < 1000 |  |  |  |
| CN1CCN(c2nc(NCCS(=O)(=O)Nc3cccc(Cl)n3)c3cc(Cl)ncc3n2)CC1 [Example 87, 2-((6-chloro-2-(4-methylpiperazin-1-yl)pyrido[3,4-d]pyrimidin-4-yl)amino)-N-(6-chloropyridin-2-yl)ethane-1-sulfonamide] |  | < 1000 |  |  |  |
| Cc1cc(NS(=O)(=O)CCNc2nc(N3CCN(C)CC3)nc3cnc(Cl)cc23)n(C)n1 [Example 90, 2-((6-chloro-2-(4-methylpiperazin-1-yl)pyrido[3,4-d]pyrimidin-4-yl)amino)-N-(1,3-dimethyl-1H-pyrazol-5-yl)ethane-1-sulfonamide] |  | < 1000 |  |  |  |
| CN1CCN(c2nc(NCCS(=O)(=O)c3ccccc3)c3cc(Cl)ncc3n2)CC1 [Example 93, 6-chloro-2-(4-methylpiperazin-1-yl)-N-(2-(phenylsulfonyl)ethyl)pyrido[3,4-d]pyrimidin-4-amine] | < 1000 | < 100 |  |  |  |
| CN1CCN(c2nc(NCCS(=O)(=O)Cc3ccccc3)c3cc(Cl)ncc3n2)CC1 [Example 94, N-(2-(benzylsulfonyl)ethyl)-6-chloro-2-(4-methylpiperazin-1-yl)pyrido[3,4-d]pyrimidin-4-amine] | < 1000 | < 100 |  |  |  |
| CN1CCN(c2nc(NCC[S+]([O-])Cc3ccccc3)c3cc(Cl)ncc3n2)CC1 (stereo not drawn) [Example 95, N-(2-(benzylsulfinyl)ethyl)-6-chloro-2-(4-methylpiperazin-1-yl)pyrido[3,4-d]pyrimidin-4-amine] | < 1000 | < 100 |  |  |  |
| CNC(=O)CCNc1nc(N2CCN(C)CC2)nc2cnc(Cl)cc12 [Example 98, 3-((6-chloro-2-(4-methylpiperazin-1-yl)pyrido[3,4-d]pyrimidin-4-yl)amino)-N-methylpropanamide] |  | < 1000 |  |  |  |

Further lines, results first:

| Ki [1] [nM] | Ki [2, 3] [nM] | IC50 ([2]; histamine H4 receptor binding) [nM] | inhibition at 1 µM ([2]; histamine H4 receptor binding, compounds initially evaluated at 1 μM) [%] | Ki ([2]; histamine H4 receptor, comparative compounds, read-out: Ki) [nM] | SMILES |
| --- | --- | --- | --- | --- | --- |
| < 1000 | < 100 | 1.74 | 94 | 0.75 | CN1CCN(c2nc(NCc3cccs3)c3cc(Cl)ncc3n2)CC1 [Example 3, 6-chloro-2-(4-methylpiperazin-1-yl)-N-(thiophen-2-ylmethyl)pyrido[3,4-d]pyrimidin-4-amine] |
| < 1000 | < 100 |  |  |  | CN1CCN(c2nc(NCc3ccco3)c3cc(Cl)ncc3n2)CC1 [Example 4, 6-chloro-N-(furan-2-ylmethyl)-2-(4-methylpiperazin-1-yl)pyrido[3,4-d]pyrimidin-4-amine] |
| < 1000 | < 100 |  |  |  | CN1CCN(c2nc(NCCS(=O)(=O)N(C)c3ccccc3)c3cc(Cl)ncc3n2)CC1 [Example 17, 2-((6-chloro-2-(4-methylpiperazin-1-yl)pyrido[3,4-d]pyrimidin-4-yl)amino)-N-methyl-N-phenylethane-1-sulfonamide] |
| < 1000 | < 100 |  |  |  | Clc1cc2c(NCc3cccs3)nc(N3CCNCC3)nc2cn1 [Example 24, 6-chloro-2-(piperazin-1-yl)-N-(thiophen-2-ylmethyl)pyrido[3,4-d]pyrimidin-4-amine] |
| < 1000 | < 100 |  |  |  | CC(C)c1cc2c(NCCS(=O)(=O)Nc3ccccc3)nc(N3CCN(C)CC3)nc2cn1 [Example 54, 2-((6-isopropyl-2-(4-methylpiperazin-1-yl)pyrido[3,4-d]pyrimidin-4-yl)amino)-N-phenylethane-1-sulfonamide] |
| < 1000 | < 100 |  |  |  | CN1CCN(c2nc(NCCS(=O)(=O)Nc3ccccc3Cl)c3cc(Cl)ncc3n2)CC1 [Example 72, 2-((6-chloro-2-(4-methylpiperazin-1-yl)pyrido[3,4-d]pyrimidin-4-yl)amino)-N-(2-chlorophenyl)ethane-1-sulfonamide] |
| < 1000 | < 100 |  |  |  | COc1ccccc1NS(=O)(=O)CCNc1nc(N2CCN(C)CC2)nc2cnc(Cl)cc12 [Example 74, 2-((6-chloro-2-(4-methylpiperazin-1-yl)pyrido[3,4-d]pyrimidin-4-yl)amino)-N-(2-methoxyphenyl)ethane-1-sulfonamide] |
|  | < 100 |  |  |  | CN1CCN(c2nc(NCCS(=O)(=O)NCc3ccccn3)c3cc(Cl)ncc3n2)CC1 [Example 88, 2-((6-chloro-2-(4-methylpiperazin-1-yl)pyrido[3,4-d]pyrimidin-4-yl)amino)-N-(pyridin-2-ylmethyl)ethane-1-sulfonamide] |
